Experimental data published in patent publication US20240132525A1, “BORON […], CO[…], METHODS AND USES THEREOF” (priority 2022, published 2024).
Read-outs that look alike come from different tables or passages of the source.

What was measured:
[1] = biological target: JAK2 (Homo sapiens (Human), UniProt O60674); assay: Biochemical kinase assay (33P-ATP filter-binding), JAK2; conditions: read-out: IC50 JAK2
Text: (§1) Biochemical Kinase Assay Protocol (JAK)
(§2) Reaction Procedure: • 1. […] Detected kinase activity by filter-binding method.

[2] = biological target: JAK1 (Homo sapiens (Human), UniProt P23458); assay: Biochemical kinase assay (33P-ATP filter-binding), JAK1; conditions: read-out: IC50 JAK1
JAK1, sequence (P23458 whole entry, species assumed): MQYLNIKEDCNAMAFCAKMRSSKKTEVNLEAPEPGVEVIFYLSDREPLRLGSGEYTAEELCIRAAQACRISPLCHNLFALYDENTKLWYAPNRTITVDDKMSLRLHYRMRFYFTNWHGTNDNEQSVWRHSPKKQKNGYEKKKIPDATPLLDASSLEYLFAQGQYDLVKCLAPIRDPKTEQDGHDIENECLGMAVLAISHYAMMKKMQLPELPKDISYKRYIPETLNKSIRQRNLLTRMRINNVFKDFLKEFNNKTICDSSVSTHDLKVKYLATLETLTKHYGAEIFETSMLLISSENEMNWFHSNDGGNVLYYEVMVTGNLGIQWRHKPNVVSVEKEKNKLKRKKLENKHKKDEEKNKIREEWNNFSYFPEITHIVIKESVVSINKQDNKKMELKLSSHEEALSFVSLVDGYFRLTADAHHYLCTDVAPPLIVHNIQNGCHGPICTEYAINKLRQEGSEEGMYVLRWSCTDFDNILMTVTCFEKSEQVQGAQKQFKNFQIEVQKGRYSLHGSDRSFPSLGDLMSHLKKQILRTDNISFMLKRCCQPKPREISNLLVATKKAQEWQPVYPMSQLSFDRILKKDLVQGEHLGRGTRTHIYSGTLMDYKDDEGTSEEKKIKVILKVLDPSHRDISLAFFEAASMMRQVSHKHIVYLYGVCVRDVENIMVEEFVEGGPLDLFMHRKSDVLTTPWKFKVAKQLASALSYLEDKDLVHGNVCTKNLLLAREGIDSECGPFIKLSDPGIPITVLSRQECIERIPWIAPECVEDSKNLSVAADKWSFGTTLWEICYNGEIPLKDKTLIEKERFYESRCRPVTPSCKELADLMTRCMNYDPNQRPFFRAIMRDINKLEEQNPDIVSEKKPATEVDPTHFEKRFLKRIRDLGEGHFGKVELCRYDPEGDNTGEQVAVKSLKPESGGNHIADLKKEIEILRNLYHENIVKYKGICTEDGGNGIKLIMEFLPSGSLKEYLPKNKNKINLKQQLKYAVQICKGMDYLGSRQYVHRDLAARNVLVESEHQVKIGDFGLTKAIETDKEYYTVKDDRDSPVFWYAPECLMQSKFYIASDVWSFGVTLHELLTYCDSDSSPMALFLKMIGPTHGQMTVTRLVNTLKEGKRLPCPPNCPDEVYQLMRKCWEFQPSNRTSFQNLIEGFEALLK
Text: as §1, §2

[3] = system: IL-31; assay: Cytokine function assay for IL-31 in DH82 cells; type: cell-based, canine; conditions: Canis lupus familiaris
Protocol: Cytokine Function Assay Protocol for IL-31
The protocol for the cytokine function assay for IL-31 is set forth below: • 1. […] After 24 hr, wash with 37° C. pre-warmed PBS (100 uL/well). • 3. Add serum-free MEM, 90 uL per well, 2 hr, 37° C. • 4. Add 10 uL 10×IL-31 (40, 10, 2.5 ug/mL) in duplicate, 5 min, 37° C. • 5. Remove medium, add 60 uL lysis buffer per well. Agitate on a plate shaker (˜350 rpm) for 10 min at RT. • 6. […] Add 6 uL Acceptor Mix, cover with aluminum foil, quickly spin at 1000 rpm, shake at 120 rpm for 2 min, then incubate at RT for 1 hr. • 8. Add 6 uL Donor Mix, cover with aluminum foil, quickly spin at 1000 rpm, shake at 120 rpm for 2 min, then incubate at RT for 1 hr. • 9. Measure the fluorescence using EnVision™ plate reader.

[4] = system: IL-4/pSTAT6; assay: Cytokine function assay IL-4/pSTAT6 in PBMC; type: cell-based
Protocol: (§3) Cytokine Function Assay Protocols for IL-4/pSTAT6 and GM-CSF/pSTAT5
IL-4/pSTAT6: • PBMC from a healthy donor was plated onto a 96 w plate. Compound was added and incubated for 1 hour (at 37° C.). After 1 hour, cells were stimulated with IL-4 for 15 minutes. Cells were fixed and stained with anti-pSTAT6 antibody. After staining, cells were read on a Beckman-Coulter CytoFLEX.

[5] = Dog LM (liver microsome) assay; type: in vitro ADME; conditions: predicted clearance as percent of liver blood flow
In short: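 Pooled Beagle liver microsomes (1 mg/ml protein), compound 1 μM, Tris pH 7.6 with 5 mM MgCl2, 37 °C, started with 1 mM NADPH; parent loss by LC-MS/MS over several time points.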

[6] = system: GM-CSF/pSTAT5; assay: Cytokine function assay GM-CSF/pSTAT5 in lysed whole blood cells; type: cell-based; conditions: read-out: IC50 GM-CSF
Protocol: as §3
GM-CSF/pSTAT5: • Whole blood from a healthy donor was lysed to remove red blood cells. Cells were plated onto a 96 well plate. Compound was added and incubated for 1 hour (at 37° C.). After 1 hour, cells were stimulated with GM-CSF for 15 minutes. Cells were fixed and stained with anti-pSTAT5 antibody. After staining, cells were read on a Beckman-Coulter CytoFLEX.

[7] = biological target: PDE4B (Homo sapiens (Human), UniProt Q07343); assay: PDE4B inhibition; type: biochemical; conditions: Table 3b, comparator compounds
PDE4B, sequence (Q07343 whole entry, species assumed): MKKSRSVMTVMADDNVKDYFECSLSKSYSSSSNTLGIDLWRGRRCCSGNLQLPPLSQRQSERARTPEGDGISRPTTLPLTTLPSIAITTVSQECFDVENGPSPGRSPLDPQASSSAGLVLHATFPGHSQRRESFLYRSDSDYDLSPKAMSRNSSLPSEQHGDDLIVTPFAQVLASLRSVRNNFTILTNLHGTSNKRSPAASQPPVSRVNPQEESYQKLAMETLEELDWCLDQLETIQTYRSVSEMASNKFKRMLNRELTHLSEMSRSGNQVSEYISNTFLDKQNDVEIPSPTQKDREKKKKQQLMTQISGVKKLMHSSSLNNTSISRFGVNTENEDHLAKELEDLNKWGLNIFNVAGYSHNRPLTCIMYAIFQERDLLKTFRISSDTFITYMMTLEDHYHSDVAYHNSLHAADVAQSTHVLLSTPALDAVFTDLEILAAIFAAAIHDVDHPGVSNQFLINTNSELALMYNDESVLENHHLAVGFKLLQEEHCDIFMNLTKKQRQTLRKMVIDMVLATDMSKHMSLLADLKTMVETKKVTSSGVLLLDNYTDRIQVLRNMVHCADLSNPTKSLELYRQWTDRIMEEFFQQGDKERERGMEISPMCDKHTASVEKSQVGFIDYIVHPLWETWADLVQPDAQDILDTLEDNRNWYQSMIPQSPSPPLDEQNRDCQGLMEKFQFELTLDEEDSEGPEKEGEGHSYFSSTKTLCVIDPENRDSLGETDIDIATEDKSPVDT

[8] = DH82, Table 3a, read-out: IC50 IL-31
[9] = PBMC, read-out: IC50 IL-4, Table 3a
[10] = Table 3a, 1 μM, 1 mg/ml microsomal protein
[11] = Table 3b, comparator compounds, read-out: IC50 IL-4

JAK2, sequence (O60674 whole entry, species assumed): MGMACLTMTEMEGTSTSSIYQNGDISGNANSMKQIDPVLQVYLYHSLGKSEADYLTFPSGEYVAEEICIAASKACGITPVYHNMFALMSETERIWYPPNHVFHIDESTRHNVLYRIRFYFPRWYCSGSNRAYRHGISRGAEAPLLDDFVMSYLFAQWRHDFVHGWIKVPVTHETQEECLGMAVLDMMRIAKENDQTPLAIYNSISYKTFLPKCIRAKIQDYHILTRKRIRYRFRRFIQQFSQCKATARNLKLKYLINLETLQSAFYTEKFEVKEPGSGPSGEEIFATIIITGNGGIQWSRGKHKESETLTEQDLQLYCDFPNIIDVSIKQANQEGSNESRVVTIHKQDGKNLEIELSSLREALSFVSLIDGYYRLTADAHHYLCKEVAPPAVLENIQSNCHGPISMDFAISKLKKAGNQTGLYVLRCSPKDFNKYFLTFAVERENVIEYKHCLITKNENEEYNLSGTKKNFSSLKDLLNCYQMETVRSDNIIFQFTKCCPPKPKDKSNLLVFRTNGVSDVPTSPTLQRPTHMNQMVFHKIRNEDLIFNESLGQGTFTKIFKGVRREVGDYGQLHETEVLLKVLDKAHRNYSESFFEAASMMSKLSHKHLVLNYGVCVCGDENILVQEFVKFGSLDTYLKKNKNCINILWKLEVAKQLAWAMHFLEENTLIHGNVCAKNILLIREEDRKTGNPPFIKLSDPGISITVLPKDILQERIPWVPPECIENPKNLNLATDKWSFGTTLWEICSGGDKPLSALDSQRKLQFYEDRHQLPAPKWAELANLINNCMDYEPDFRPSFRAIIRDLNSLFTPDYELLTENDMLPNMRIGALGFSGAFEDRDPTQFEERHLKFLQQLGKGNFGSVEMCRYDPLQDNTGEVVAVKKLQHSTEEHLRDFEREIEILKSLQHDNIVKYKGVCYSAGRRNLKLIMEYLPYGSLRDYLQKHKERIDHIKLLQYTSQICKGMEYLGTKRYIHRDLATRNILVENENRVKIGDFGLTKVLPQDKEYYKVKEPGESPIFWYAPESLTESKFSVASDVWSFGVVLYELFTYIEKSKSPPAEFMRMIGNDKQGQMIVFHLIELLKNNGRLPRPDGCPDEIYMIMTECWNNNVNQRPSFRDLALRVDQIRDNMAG

Structure (SMILES) | IC50 ([1]; Table 3a) | IC50 ([2]; Table 3a) | IC50 [3, 8] | IC50 [4, 9] | Dog LM QH [5, 10] | IC50 ([6]; Whole blood cell) | IC50 ([3]; DH82, read-out: IC50 IL-31) | IC50 ([1]; Table 3b, comparator compounds) | IC50 ([2]; Table 3b, comparator compounds) | Inhibition PDE4B @ 1 μM [7] | IC50 [4, 11] | Dog LM QH ([5]; Table 3b, comparator compounds) | IC50 ([6]; Table 3b, comparator compounds) | IC50 [7]
N#C[C@H]1CCOC[C@@H]1Nc1nc(Nc2cc3c(c(C(F)(F)F)c2)B(O)OC3)ncc1Cl (single isomer, unassigned) [Example 042a, (trans)-3-((5-chloro-2-((1-hydroxy-7-(trifluoromethyl)-1,3-dihydrobenzo[c][1,2]oxaborol-5-yl)amino)pyrimidin-4-yl)amino)tetrahydro-2H-pyran-4-carbonitrile] | 7.3 nM | 0.4 nM | 9.7 nM | 148 nM | <19.9% | 2970 nM | – | – | – | – | – | – | – | –
N#C[C@@H]1CCCC[C@H]1Nc1nc(Nc2ccc3c(c2)COB3O)ncc1Cl (relative stereo) [Example 017, (trans)-2-((5-chloro-2-((1-hydroxy-1,3-dihydrobenzo[c][1,2]oxaborol-5-yl)amino)pyrimidin-4-yl)amino)cyclohexane-1-carbonitrile] | 4.2 nM | 0.4 nM | 35.4 nM | 233 nM | <19.9% | 10000 nM | – | – | – | – | – | – | – | –
Cc1cnc(Nc2cc(Cl)c3c(c2)COB3O)nc1NC1COCCC1C#N (racemic) [Example 031, (trans)-3-((2-((7-chloro-1-hydroxy-1,3-dihydrobenzo[c][1,2]oxaborol-5-yl)amino)-5-methylpyrimidin-4-yl)amino)tetrahydro-2H-pyran-4-carbonitrile] | 40.8 nM | 1.2 nM | 27.6 nM | 67.5 nM | <19.9% | 3150 nM | – | – | – | – | – | – | – | –
Cc1cnc(Nc2cc(Cl)c3c(c2)COB3O)nc1NC1CCCCC1C#N (racemic) [Example 010, (trans)-2-[[2-[(7-chloro-1-hydroxy-1,3dihydrobenzo[c][1,2]oxaboroll-5-yl)amino]-5-methyl-pyrimidin-4-yl]amino]cyclohexane-1-carbonitrile] | 19.3 nM | 0.7 nM | 18.1 nM | 71.7 nM | <19.9% | 1020 nM | – | – | – | – | – | – | – | –
Cc1cnc(Nc2cc(Cl)c3c(c2)COB3O)nc1N[C@@H]1CCC[C@H]1C#N (single isomer, unassigned) [Example 003a, (trans)-2-((2-((7-chloro-1-hydroxy-1,3-dihydrobenzo[c][1,2]oxaborol-5-yl)amino)-5-methylpyrimidin-4-yl)amino)cyclopentane-1-carbonitrile] | 3.7 nM | 0.7 nM | 9.2 nM | 93.3 nM | <19.9% | 2220 nM | – | – | – | – | – | – | – | –
Cc1cnc(Nc2cc3c(c(C(F)(F)F)c2)B(O)OC3)nc1N[C@H]1COC[C@@H]1C#N (single isomer, unassigned) [Example 043a, (trans)-4-[[2-[[1-hydroxy-7-(trifluoromethyl)-3H-2,1-benzoxaborol-5-yl]amino]-5-methyl-pyrimidin-4-yl]amino]tetrahydrofuran-3-carbonitrile] | 23.7 nM | 0.9 nM | 45.4 nM | 267 nM | <19.9% | 4140 nM | – | – | – | – | – | – | – | –
Cc1cnc(Nc2cc(Cl)c3c(c2)COB3O)nc1N[C@H]1CCCOC1 [Example 030b, (S)-7-chloro-5-((5-methyl-4-((tetrahydro-2H-pyran-3-yl)amino)pyrimidin-2-yl)amino)benzo[c][1,2]oxaborol-1(3H)-ol] | 91.9 nM | 4.7 nM | – | 193 nM | <19.9% | 4480 nM | 25.8 nM | – | – | – | – | – | – | –
Cc1cnc(Nc2ccc3c(c2)COB3O)nc1N[C@@H]1CCCC[C@H]1C#N (relative stereo) [Example 008, (trans)2-[[2-[(1-hydroxy-3H-2,1-benzoxaborol-5-yl)amino]-5-methyl-pyrimidin-4-yl]amino]cyclohexane-1-carbonitrile] | 3.4 nM | 0.3 nM | 40.2 nM | 95.9 nM | <19.9% | 774 nM | – | – | – | – | – | – | – | –
CCC(CC)Nc1nc(Nc2cc(C)c3c(c2)COB3O)ncc1C [Example C004] | – | – | – | – | – | – | – | 41 nM | 1.1 nM | 22% | 118 nM | 34.5% | > 10000 nM | –
Cc1cc(Nc2ncc(Cl)c(NC3CCCC3)n2)cc2c1B(O)OC2 [Example C016] | – | – | – | – | – | – | – | 663 nM | 2.1 nM | 30% | 688 nM | 54.5% | 927 nM | –
CCC(CC)Nc1nc(Nc2cc(F)c3c(c2)COB3O)ncc1C [Example C003] | – | – | – | – | – | – | – | 43.7 nM | 0.7 nM | – | 125 nM | 41.0% | 1160 nM | 212 nM
Cc1cnc(Nc2ccc3c(c2)C(C)(C)OB3O)nc1NC1CCCC1 [Example C009] | – | – | – | – | – | – | – | 83.9 nM | 2.4 nM | 40% | 218 nM | 83.4% | 4220 nM | 761 nM
Cc1cnc(Nc2cc(Cl)c3c(c2)COB3O)nc1NC1CCCC1 [Example C007] | – | – | – | – | – | – | – | 31.8 nM | 0.7 nM | – | 300 nM | 52.1% | 3740 nM | 113 nM
CCC(CC)Nc1nc(Nc2ccc3c(c2)COB3O)ncc1C [Example C001] | – | – | – | – | – | – | – | 60.2 nM | 1.6 nM | 90% | 115 nM | 73.8% | 1720 nM | 92.2 nM
Cc1cnc(Nc2ccc3c(c2)COB3O)nc1NC1CCCCC1 [Example C011] | – | – | – | – | – | – | – | 32.9 nM | 3.2 nM | 13% | 2490 nM | 83.5% | 7700 nM | 242 nM
Cc1cnc(Nc2cc(C)c3c(c2)COB3O)nc1NC1CCCC1 [Example C008] | – | – | – | – | – | – | – | 59.3 nM | 2.3 nM | 37% | 973 nM | 54.3% | > 10000 nM | –
OB1OCc2cc(Nc3ncc(Cl)c(NC4CCCC4)n3)ccc21 [Example C014] | – | – | – | – | – | – | – | 179 nM | 3.3 nM | – | 782 nM | 78.5% | 5350 nM | 52.7 nM
